Data taken from US8680052B1, “Methods of treating, reducing the incidence of, and/or preventing ischemic events” (The Medicines Company, priority 2013, dated 2014).
Read-outs that look alike come from different tables or passages of the source.

Tested on: patients with acute coronary syndromes undergoing PCI
[1] = 48-hour, MITT Without STEMI, cangrelor vs clopidogrel
[2] = 48-hour, MITT Without STEMI, exploratory
[3] = 48 hours, ITT With STEMI, Cangrelor vs Clopidogrel
[4] = 48 hours, ITT Without STEMI, Cangrelor vs Clopidogrel
[5] = 48 hours, ITT, Cangrelor vs Clopidogrel
[6] = 48 hours, MITT With STEMI, Cangrelor vs Clopidogrel
[7] = 48 hours, MITT Without STEMI, Cangrelor vs Clopidogrel
[8] = 48 hours, MITT, Cangrelor vs Clopidogrel

Protocol: Patients were eligible for enrollment if they had stable angina, unstable angina, or non-ST-segment elevation (NSTE) MI with obstructive coronary artery disease and were scheduled to undergo PCI.
The infusion began within 30 minutes prior to PCI and continued for at least 2 hours or until the conclusion of the index procedure, whichever was longer. At the treating physician's discretion, the infusion could be continued for 4 hours.
All patients received aspirin 75-325 mg per local site standards. Adjunctive anticoagulants (unfractionated heparin, low molecular weight heparin, bivalirudin, or fondaparinux) and the procedural use of glycoprotein IIb/IIIa inhibitors were determined by the treating physician.
The primary efficacy endpoint was the 48-hour composite of all-cause mortality, MI, or ischemia-driven revascularization. Prespecified secondary efficacy endpoints included the composite of mortality or MI at 48 hours and 30 days; the composite of mortality, MI, or ischemia-driven revascularization at 30 days; the components of the composite endpoints at 48 hours and 30 days; stroke at 48 hours; abrupt closure, threatened abrupt closure, need for urgent coronary artery bypass grafting, or unsuccessful procedure during the index PCI; acute (24 hours) and 48 hours stent thrombosis; and all-cause mortality at 6 months and 1 year.
Rates of MI and ischemia-driven revascularization up to 30 days following the index procedure were assessed. Ischemia-driven revascularization was defined as symptoms of myocardial ischemia leading to urgent (within 24 hours of the last episode of ischemia) revascularization, which must have occurred after the index procedure concluded (i.e., guidewire removal). New electrocardiographic changes, acute pulmonary edema, ventricular arrhythmias, or hemodynamic instability could also constitute evidence of ischemia.
MI was defined by a new Q wave (duration >0.03 seconds) in two contiguous electrocardiographic leads or elevations in creatine kinase (CK) and CK-MB, including a rise of CK-MB≧3 times the local upper limit or normal and, when biomarkers were elevated prior to PCI, an additional 50% above baseline. One baseline troponin measurement was required for patients undergoing urgent PCI. Measurements of CK-MB were obtained at 2, 10, 17, and 24 hours post-PCI.
The primary efficacy analysis was to be determined in the modified intent-to-treat (mITT) population, defined as all randomized patients (excluding STEMI cohort) who received at least one dose of study drug and underwent the index PCI. The safety population consisted of all randomized patients who received any study drug. Patients in the safety analyses were assigned to a treatment arm based on treatment received, not as randomized.

CSCCNc1nc(SCCC(F)(F)F)nc2c1ncn2[C@@H]1O[C@H](COP(=O)(O)OP(=O)(O)C(Cl)(Cl)P(=O)(O)O)[C@@H](O)[C@H]1O [Cangrelor, cangrelor] was tested, and the All-cause mortality (48-hour, MITT Without STEMI) was 8 (0.2), the IDR (48-hour, MITT Without STEMI) was 13 (0.3) and the MI (48-hour, MITT Without STEMI) was 278 (7.1). The “Mortality/MI/IDR (primary endpoint)” value (48-hour, MITT Without STEMI) was 290 (7.5), the “Q-wave MI” value (48-hour, MITT Without STEMI) was 4 (0.1) and the Stent thrombosis (48-hour, MITT Without STEMI) was 7 (0.2). For the same compound, the Stroke (48-hour, MITT Without STEMI) was 6 (0.2), the “OR (95% CI): All-cause mortality” value [1] was 1.59 (0.52, 4.87) and the “OR (95% CI): IDR” value [1] was 0.56 (0.28, 1.11). The “OR (95% CI): MI” value [1] was 1.09 (0.91, 1.29), the “OR (95% CI): Mortality/Q-wave MI/IDR” value [1] was 0.67 (0.39, 1.14) and the “OR (95% CI): Mortality/Q-wave MI/Stent thrombosis” value [1] was 0.78 (0.42, 1.44). The “OR (95% CI): Q-wave MI” value [1] was 0.40 (0.12, 1.27), the “OR (95% CI): Stent thrombosis” value [1] was 0.63 (0.25, 1.63) and the “OR (95% CI): Stroke” value [1] was 0.85 (0.29, 2.54). The “Mortality/Q-wave MI/IDR” value [2] was 23 (0.6), the “Mortality/Q-wave MI/Stent thrombosis” value [2] was 18 (0.5) and the All-cause mortality (48 hours, ITT) was 9 (0.2) no. (%). The IDR (48 hours, ITT) was 21 (0.5) no. (%), the MI (48 hours, ITT) was 294 (6.7) no. (%) and the Mortality/MI/IDR (48 hours, ITT) was 312 (7.1) no. (%). For the same compound, the “Mortality/Q-wave MI/IDR” value (48 hours, ITT) was 32 (0.7) no. (%), the “Mortality/Q-wave MI/Stent thrombosis” value (48 hours, ITT) was 23 (0.5) no. (%) and the “Q-wave MI” value (48 hours, ITT) was 4 (0.1) no. (%). The Stent thrombosis (48 hours, ITT) was 11 (0.2) no. (%), the Stroke (48 hours, ITT) was 6 (0.1) no. (%) and the All-cause mortality (48 hours, ITT With STEMI) was 1 (0.2) no. (%). The IDR (48 hours, ITT With STEMI) was 6 (1.2) no. (%), the MI (48 hours, ITT With STEMI) was 16 (3.3) no. (%) and the Mortality/MI/IDR (48 hours, ITT With STEMI) was 20 (4.1) no. (%). For the same compound, the “Mortality/Q-wave MI/IDR” value (48 hours, ITT With STEMI) was 7 (1.5) no. (%), the “Mortality/Q-wave MI/Stent thrombosis” value (48 hours, ITT With STEMI) was 5 (1.0) no. (%) and the “Q-wave MI” value (48 hours, ITT With STEMI) was 0 (0.0) no. (%). The Stent thrombosis (48 hours, ITT With STEMI) was 4 (0.8) no. (%), the Stroke (48 hours, ITT With STEMI) was 0 (0.0) no. (%) and the “All-cause mortality OR (95% CI)” value [3] was 0.209 (0.024, 1.793). The “IDR OR (95% CI)” value [3] was 0.786 (0.271, 2.283), the “MI OR (95% CI)” value [3] was 1.900 (0.831, 4.341) and the “Mortality/MI/IDR OR (95% CI)” value [3] was 1.054 (0.560, 1.985). For the same compound, the “Mortality/Q-wave MI/IDR OR (95% CI)” value [3] was 0.560 (0.222, 1.416), the “Mortality/Q-wave MI/Stent thrombosis OR (95% CI)” value [3] was 0.580 (0.193, 1.743) and the “Stent thrombosis OR (95% CI)” value [3] was 1.052 (0.262, 4.321). The All-cause mortality (48 hours, ITT Without STEMI) was 8 (0.2) no. (%), the IDR (48 hours, ITT Without STEMI) was 15 (0.4) no. (%) and the MI (48 hours, ITT Without STEMI) was 278 (7.1) no. (%). The Mortality/MI/IDR (48 hours, ITT Without STEMI) was 292 (7.4) no. (%), the “Mortality/Q-wave MI/IDR” value (48 hours, ITT Without STEMI) was 25 (0.6) no. (%) and the “Mortality/Q-wave MI/Stent thrombosis” value (48 hours, ITT Without STEMI) was 18 (0.5) no. (%). For the same compound, the “Q-wave MI” value (48 hours, ITT Without STEMI) was 4 (0.1) no. (%), the Stent thrombosis (48 hours, ITT Without STEMI) was 7 (0.2) no. (%) and the Stroke (48 hours, ITT Without STEMI) was 6 (0.2) no. (%). The “All-cause mortality OR (95% CI)” value [4] was 1.331 (0.461, 3.839), the “IDR OR (95% CI)” value [4] was 0.649 (0.338, 1.246) and the “MI OR (95% CI)” value [4] was 1.090 (0.914, 1.299). For the same compound, the “Mortality/MI/IDR OR (95% CI)” value [4] was 1.056 (0.890, 1.252), the “Mortality/Q-wave MI/IDR OR (95% CI)” value [4] was 0.711 (0.425, 1.190) and the “Mortality/Q-wave MI/Stent thrombosis OR (95% CI)” value [4] was 0.747 (0.405, 1.379). The “Q-wave MI OR (95% CI)” value [4] was 0.398 (0.125, 1.272), the “Stent thrombosis OR (95% CI)” value [4] was 0.634 (0.246, 1.638) and the “Stroke OR (95% CI)” value [4] was 0.855 (0.287, 2.546). For the same compound, the “All-cause mortality OR (95% CI)” value [5] was 0.821 (0.340, 1.983), the “IDR OR (95% CI)” value [5] was 0.678 (0.389, 1.182) and the “MI OR (95% CI)” value [5] was 1.122 (0.945, 1.331). For the same compound, the “Mortality/MI/IDR OR (95% CI)” value [5] was 1.058 (0.898, 1.248), the “Mortality/Q-wave MI/IDR OR (95% CI)” value [5] was 0.667 (0.425, 1.045) and the “Mortality/Q-wave MI/Stent thrombosis OR (95% CI)” value [5] was 0.698 (0.409, 1.191). For the same compound, the “Q-wave MI OR (95% CI)” value [5] was 0.401 (0.126, 1.279), the “Stent thrombosis OR (95% CI)” value [5] was 0.735 (0.337, 1.603) and the “Stroke OR (95% CI)” value [5] was 0.752 (0.261, 2.170). For the same compound, the All-cause mortality (48 hours, MITT) was 9 (0.2) no. (%), the IDR (48 hours, MITT) was 19 (0.4) no. (%) and the MI (48 hours, MITT) was 292 (6.7) no. (%). The Mortality/MI/IDR (48 hours, MITT) was 308 (7.1) no. (%), the “Mortality/Q-wave MI/IDR” value (48 hours, MITT) was 30 (0.7) no. (%) and the “Mortality/Q-wave MI/Stent thrombosis” value (48 hours, MITT) was 23 (0.5) no. (%). For the same compound, the “Q-wave MI” value (48 hours, MITT) was 4 (0.1) no. (%), the Stent thrombosis (48 hours, MITT) was 11 (0.3) no. (%) and the Stroke (48 hours, MITT) was 6 (0.1) no. (%). The All-cause mortality (48 hours, MITT With STEMI) was 1 (0.2) no. (%), the IDR (48 hours, MITT With STEMI) was 6 (1.3) no. (%) and the MI (48 hours, MITT With STEMI) was 14 (3.1) no. (%). For the same compound, the Mortality/MI/IDR (48 hours, MITT With STEMI) was 18 (4.0) no. (%), the “Mortality/Q-wave MI/IDR” value (48 hours, MITT With STEMI) was 7 (1.6) no. (%) and the “Mortality/Q-wave MI/Stent thrombosis” value (48 hours, MITT With STEMI) was 5 (1.1) no. (%). For the same compound, the “Q-wave MI” value (48 hours, MITT With STEMI) was 0 (0.0) no. (%), the Stent thrombosis (48 hours, MITT With STEMI) was 4 (0.9) no. (%) and the Stroke (48 hours, MITT With STEMI) was 0 (0.0) no. (%). For the same compound, the “All-cause mortality OR (95% CI)” value [6] was 0.249 (0.028, 2.235), the “IDR OR (95% CI)” value [6] was 0.857 (0.286, 2.571) and the “MI OR (95% CI)” value [6] was 1.778 (0.739, 4.282). For the same compound, the “Mortality/MI/IDR OR (95% CI)” value [6] was 1.064 (0.541, 2.092), the “Mortality/Q-wave MI/IDR OR (95% CI)” value [6] was 0.632 (0.243, 1.645) and the “Mortality/Q-wave MI/Stent thrombosis OR (95% CI)” value [6] was 0.622 (0.202, 1.917). For the same compound, the “Stent thrombosis OR (95% CI)” value [6] was 1.002 (0.249, 4.033), the All-cause mortality (48 hours, MITT Without STEMI) was 8 (0.2) no. (%) and the IDR (48 hours, MITT Without STEMI) was 13 (0.3) no. (%). The MI (48 hours, MITT Without STEMI) was 278 (7.1) no. (%), the “Mortality/MI/IDR (Prespecified primary endpoint)” value (48 hours, MITT Without STEMI) was 290 (7.5) no. (%) and the “Mortality/Q-wave MI/IDR” value (48 hours, MITT Without STEMI) was 23 (0.6) no. (%). For the same compound, the “Mortality/Q-wave MI/Stent thrombosis” value (48 hours, MITT Without STEMI) was 18 (0.5) no. (%), the “Q-wave MI” value (48 hours, MITT Without STEMI) was 4 (0.1) no. (%) and the Stent thrombosis (48 hours, MITT Without STEMI) was 7 (0.2) no. (%). The Stroke (48 hours, MITT Without STEMI) was 6 (0.2) no. (%), the “primary composite of all-cause mortality, MI, or ischemia-driven revascularization” value (48 hours, MITT Without STEMI) was 7.5% and the “All-cause mortality OR (95% CI)” value [7] was 1.591 (0.520, 4.869). The “IDR OR (95% CI)” value [7] was 0.560 (0.283, 1.108), the “MI OR (95% CI)” value [7] was 1.085 (0.910, 1.294) and the “Mortality/MI/IDR (Prespecified primary endpoint) OR (95% CI)” value [7] was 1.048 (0.883, 1.243). For the same compound, the “Mortality/Q-wave MI/IDR OR (95% CI)” value [7] was 0.670 (0.394, 1.140), the “Mortality/Q-wave MI/Stent thrombosis OR (95% CI)” value [7] was 0.777 (0.419, 1.442) and the “Q-wave MI OR (95% CI)” value [7] was 0.397 (0.124, 1.267). For the same compound, the “Stent thrombosis OR (95% CI)” value [7] was 0.632 (0.245, 1.631), the “Stroke OR (95% CI)” value [7] was 0.852 (0.286, 2.536) and the “All-cause mortality OR (95% CI)” value [8] was 0.995 (0.394, 2.508). The “IDR OR (95% CI)” value [8] was 0.628 (0.353, 1.118), the “MI OR (95% CI)” value [8] was 1.107 (0.932, 1.315) and the “Mortality/MI/IDR OR (95% CI)” value [8] was 1.049 (0.889, 1.238). For the same compound, the “Mortality/Q-wave MI/IDR OR (95% CI)” value [8] was 0.661 (0.416, 1.051), the “Mortality/Q-wave MI/Stent thrombosis OR (95% CI)” value [8] was 0.737 (0.429, 1.265) and the “Q-wave MI OR (95% CI)” value [8] was 0.397 (0.125, 1.268). For the same compound, the “Stent thrombosis OR (95% CI)” value [8] was 0.729 (0.334, 1.588), the “Stroke OR (95% CI)” value [8] was 0.852 (0.286, 2.538) and the All-cause mortality (48 hours, Safety population) was 9 (0.2) no. (%). The IDR (48 hours, Safety population) was 19 (0.4) no. (%), the MI (48 hours, Safety population) was 294 (6.7) no. (%) and the Mortality/MI/IDR (48 hours, Safety population) was 310 (7.1) no. (%). For the same compound, the “Mortality/Q-wave MI/IDR” value (48 hours, Safety population) was 30 (0.7) no. (%), the “Mortality/Q-wave MI/Stent thrombosis” value (48 hours, Safety population) was 23 (0.5) no. (%) and the “Q-wave MI” value (48 hours, Safety population) was 4 (0.1) no. (%). The Stent thrombosis (48 hours, Safety population) was 11 (0.3) no. (%), the Stroke (48 hours, Safety population) was 6 (0.1) no. (%) and the All-cause mortality (30 days, ITT) was 40 (0.9) no. (%). For the same compound, the IDR (30 days, ITT) was 62 (1.4) no. (%), the MI (30 days, ITT) was 318 (7.3) no. (%) and the Mortality/MI/IDR (30 days, ITT) was 381 (8.7) no. (%). For the same compound, the “Mortality/Q-wave MI/IDR” value (30 days, ITT) was 102 (2.3) no. (%), the “Mortality/Q-wave MI/Stent thrombosis” value (30 days, ITT) was 68 (1.6) no. (%) and the “Q-wave MI” value (30 days, ITT) was 9 (0.2) no. (%).
